In PMC9812923 (2022):

Experiments:
[1] = system: GA3 (DNA, G4) AGGGAAAAGGGGAGGGAAAAGGGGA; assay: UV-Vis melting, 295 nm; details: 100 mM K+; 10 mM lithium cacodylate pH 7.2; 2 equivalents NMM, ~4 μM DNA
[2] = system: GA1 (DNA, G4) GAGGGAGGGAGGGAAAAGGGGA; assay: UV-Vis melting, 295 nm; details: 100 mM K+; 10 mM lithium cacodylate pH 7.2; 2 equivalents NMM, ~4 μM DNA
[3] = system: GA2 (DNA, G4) GAGGGAGGGAAAAGGGGAGGGA; assay: UV-Vis melting, 295 nm; details: 100 mM K+; 10 mM lithium cacodylate pH 7.2; 2 equivalents NMM, ~4 μM DNA
[4] = system: GA2 (DNA, G4) GAGGGAGGGAAAAGGGGAGGGA; assay: UV-Vis titration, SVD; details: 5 mM K+, 95 mM Li+; 10 mM lithium cacodylate pH 7.2, 20 °C; 1:1 model

- ΔTm [1]: 7.0 ± 1.7 °C
- ΔTm [2]: 14.6 ± 1.1 °C
- ΔTm [3]: 13.1 ± 0.8 °C
- Ka [4]: 1.4 ± 0.1 µM⁻¹
SMILES: CCc1c(C)c2cc3nc(cc4nc(cc5c(CC)c(C)c(cc1[nH]2)n5C)C(C)=C4CCC(=O)O)C(CCC(=O)O)=C3C
